From the supplement of paper PMC10307832

Assays:
Test in all cases: relative viability (nuclei count vs DMSO), 5 days (fraction); higher = more cells survive
[1] = tested on: ChaGo-K-1
In short: (§1)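 Medians of duplicate plates are given as relative viability. That measure is the nuclei count in treated wells divided by the count in vehicle wells. Counts were taken on 4× images of lung cancer cell lines in 1536-well plates, 5 days after pin-tool dosing the day after seeding with one drug alone or a fixed anchor-drug dose plus five library-drug doses (not always all listed) in √10 steps.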

[2] = tested on: EKVX
In short: as §1

[3] = tested on: EMC-BAC-2
In short: as §1

[4] = tested on: EPLC-272H
In short: as §1

[5] = tested on: HCC-78
In short: as §1

[6] = tested on: HCC-827
In short: as §1

[7] = tested on: LCLC-103H
In short: as §1

[8] = tested on: LK-2
In short: as §1

[9] = tested on: LU99A
In short: as §1

[10] = tested on: LXF-289
In short: as §1

[11] = tested on: NCI-H1563
In short: as §1

[12] = tested on: NCI-H1666
In short: as §1

[13] = tested on: NCI-H1975
In short: as §1

[14] = tested on: NCI-H2126
In short: as §1

[15] = tested on: NCI-H23
In short: as §1

[16] = tested on: NCI-H2405
In short: as §1

[17] = tested on: NCI-H322M
In short: as §1

[18] = tested on: PC-14
In short: as §1

[19] = tested on: RERF-LC-KJ
In short: as §1

[20] = tested on: SK-LU-1
In short: as §1

[21] = tested on: SW 1573
In short: as §1

## O=c1cc(N2CCOCC2)oc2c(-c3cccc4c3sc3ccccc34)cccc12 + C[C@@H](Oc1cc(-c2cnn(C3CCNCC3)c2)cnc1N)c1c(Cl)ccc(F)c1Cl [Crizotinib] (partner 1 µM)
[1]; first compound 0.01 µM
  relative viability: 1.17
[1]; first compound 0.03162 µM
  relative viability: 1.16
[1]; first compound 0.1 µM
  relative viability: 1.23
[1]; first compound 0.3162 µM
  relative viability: 1.08
[1]; first compound 1 µM
  relative viability: 1.08
[2]; first compound 0.01 µM
  relative viability: 1.04
[2]; first compound 0.03162 µM
  relative viability: 0.881
[2]; first compound 0.1 µM
  relative viability: 1.18
[2]; first compound 0.3162 µM
  relative viability: 0.915
[2]; first compound 1 µM
  relative viability: 0.995
[3]; first compound 0.01 µM
  relative viability: 0.787
[3]; first compound 0.03162 µM
  relative viability: 0.788
[3]; first compound 0.1 µM
  relative viability: 0.847
[3]; first compound 0.3162 µM
  relative viability: 0.77
[3]; first compound 1 µM
  relative viability: 0.735
[4]; first compound 0.01 µM
  relative viability: 0.909
[4]; first compound 0.03162 µM
  relative viability: 1.07
[4]; first compound 0.3162 µM
  relative viability: 0.937
[4]; first compound 1 µM
  relative viability: 0.896
[5]; first compound 0.01 µM
  relative viability: 0.342
[5]; first compound 0.03162 µM
  relative viability: 0.33
[5]; first compound 0.1 µM
  relative viability: 0.331
[5]; first compound 0.3162 µM
  relative viability: 0.326
[5]; first compound 1 µM
  relative viability: 0.353
[6]; first compound 0.01 µM
  relative viability: 0.918
[6]; first compound 0.03162 µM
  relative viability: 0.939
[6]; first compound 0.1 µM
  relative viability: 0.873
[6]; first compound 0.3162 µM
  relative viability: 0.965
[6]; first compound 1 µM
  relative viability: 0.956
[7]; first compound 0.01 µM
  relative viability: 1.06
[7]; first compound 0.03162 µM
  relative viability: 0.976
[7]; first compound 0.1 µM
  relative viability: 1.12
[7]; first compound 0.3162 µM
  relative viability: 0.958
[7]; first compound 1 µM
  relative viability: 1.07
[8]; first compound 0.01 µM
  relative viability: 0.227
[8]; first compound 0.03162 µM
  relative viability: 0.258
[8]; first compound 0.1 µM
  relative viability: 0.219
[8]; first compound 0.3162 µM
  relative viability: 0.193
[8]; first compound 1 µM
  relative viability: 0.243
[9]; first compound 0.01 µM
  relative viability: 0.647
[9]; first compound 0.03162 µM
  relative viability: 0.574
[9]; first compound 0.1 µM
  relative viability: 0.577
[9]; first compound 0.3162 µM
  relative viability: 0.535
[9]; first compound 1 µM
  relative viability: 0.573
[10]; first compound 0.01 µM
  relative viability: 0.814
[10]; first compound 0.03162 µM
  relative viability: 0.806
[10]; first compound 0.1 µM
  relative viability: 0.794
[10]; first compound 0.3162 µM
  relative viability: 0.789
[10]; first compound 1 µM
  relative viability: 0.755
[11]; first compound 0.01 µM
  relative viability: 0.809
[11]; first compound 0.03162 µM
  relative viability: 0.795
[11]; first compound 0.1 µM
  relative viability: 0.848
[11]; first compound 0.3162 µM
  relative viability: 0.711
[11]; first compound 1 µM
  relative viability: 0.82
[12]; first compound 0.01 µM
  relative viability: 0.971
[12]; first compound 0.03162 µM
  relative viability: 1.05
[12]; first compound 0.1 µM
  relative viability: 0.905
[12]; first compound 0.3162 µM
  relative viability: 0.941
[12]; first compound 1 µM
  relative viability: 0.812
[13]; first compound 0.01 µM
  relative viability: 0.862
[13]; first compound 0.03162 µM
  relative viability: 0.998
[13]; first compound 0.1 µM
  relative viability: 1.02
[13]; first compound 0.3162 µM
  relative viability: 0.808
[13]; first compound 1 µM
  relative viability: 0.984
[14]; first compound 0.01 µM
  relative viability: 1.04
[14]; first compound 0.03162 µM
  relative viability: 1.01
[14]; first compound 0.1 µM
  relative viability: 1.01
[14]; first compound 0.3162 µM
  relative viability: 0.944
[14]; first compound 1 µM
  relative viability: 0.955
[15]; first compound 0.01 µM
  relative viability: 0.59
[15]; first compound 0.03162 µM
  relative viability: 0.586
[15]; first compound 0.3162 µM
  relative viability: 0.508
[15]; first compound 1 µM
  relative viability: 0.506
[16]; first compound 0.01 µM
  relative viability: 0.814
[16]; first compound 0.03162 µM
  relative viability: 0.856
[16]; first compound 0.1 µM
  relative viability: 0.915
[16]; first compound 0.3162 µM
  relative viability: 0.849
[16]; first compound 1 µM
  relative viability: 0.84
[17]; first compound 0.01 µM
  relative viability: 0.94
[17]; first compound 0.03162 µM
  relative viability: 0.842
[17]; first compound 0.3162 µM
  relative viability: 0.943
[17]; first compound 1 µM
  relative viability: 0.84
[18]; first compound 0.01 µM
  relative viability: 0.906
[18]; first compound 0.03162 µM
  relative viability: 0.82
[18]; first compound 0.1 µM
  relative viability: 0.85
[18]; first compound 0.3162 µM
  relative viability: 0.843
[18]; first compound 1 µM
  relative viability: 0.795
[19]; first compound 0.01 µM
  relative viability: 0.838
[19]; first compound 0.03162 µM
  relative viability: 0.798
[19]; first compound 0.1 µM
  relative viability: 0.871
[19]; first compound 0.3162 µM
  relative viability: 0.823
[19]; first compound 1 µM
  relative viability: 0.808
[20]; first compound 0.03162 µM
  relative viability: 0.897
[20]; first compound 0.1 µM
  relative viability: 0.828
[20]; first compound 0.3162 µM
  relative viability: 0.993
[20]; first compound 1 µM
  relative viability: 0.877
[21]; first compound 0.01 µM
  relative viability: 0.787
[21]; first compound 0.03162 µM
  relative viability: 0.805
[21]; first compound 0.1 µM
  relative viability: 0.808
[21]; first compound 0.3162 µM
  relative viability: 0.74
[21]; first compound 1 µM
  relative viability: 0.752
